“Also recorded” adds a separate entry of the source. Like-named read-outs stand apart in the source and are kept apart here.
Tests used:
SK-MEL-5 = assay: NCI-60 cell growth (SRB); assay type: cell-based; settings: SK-MEL-5, Melanoma; 10 μM, 48 hours
Protocol: (§1) This example illustrates that Compounds 1 and 23 can be used in inhibit the growth of c-Myc expressing cancer cell lines in vitro. The NCI-60 panel of cancer cell lines (see Shoemaker, Nat. Rev. Cancer, 6, 813-823, 2006, and dtp.cancer.gov/discovery_development/nci-60/) was assayed for cell growth in the presence of 10 μM Compound 1 or Compound 23 for 48 hours. At 48 hours, the assay was terminated by fixation with TCA and determination of relative cell counts by addition of Sulforhodamine B (SRB, see Alley et al., Cancer Research, 48: 589-601, 1988.). Growth percent was determined by comparison of SRB reading of a duplicate plate of cells taken at the time of compound addition to the SRB reading at the termination of the treatment. The following table provides a summary of the percent of growth of each cell line in the panel compared to control (no treatment), as well as the mean delta and range of percent growth compared to control across the panel of cell lines for each treatment condition.

NCI-H522 = assay: NCI-60 cell growth (SRB); assay type: cell-based; settings: NCI-H522, Non-Small Cell Lung Cancer; 10 μM, 48 hours
Protocol: as §1

MCF7 = assay: NCI-60 cell growth (SRB); assay type: cell-based; settings: MCF7, Breast Cancer; 10 μM, 48 hours
Protocol: as §1

SF-268 = assay: NCI-60 cell growth (SRB); assay type: cell-based; settings: SF-268, CNS Cancer; 10 μM, 48 hours
Protocol: as §1

SR = assay: NCI-60 cell growth (SRB); assay type: cell-based; settings: Leukemia, 10 μM, 48 hours
Protocol: as §1

COLO 205 = assay: NCI-60 cell growth (SRB); assay type: cell-based; settings: COLO 205, Colon Cancer; 10 μM, 48 hours
Protocol: as §1

HS 578T = assay: NCI-60 cell growth (SRB); assay type: cell-based; settings: Breast Cancer, 10 μM, 48 hours
Protocol: as §1

L363 cells = assay: L363 cell viability (MTS); assay type: cell-based, human; settings: Homo sapiens
Protocol: Since two thirds of multiple myeloma cases involve deregulated c-MYC expression (Kuehl and Bergsagel, Blood 2012, 120, 2351; Shou, et al., Proc Natl Acad Sci USA 2000, 97, 228), we elected to evaluate the cell viability effects of Compound 1 in a multiple myeloma model. […] This suppression was maintained over 72 hours, which is notable given the characteristic rapid replenishment of the protein—a phenomenon that complicates targeting c-Myc at the protein level (FIG. 4C). This effect was maintained across a genetically diverse set of 4 multiple myeloma lines. We observed decreases in c-MYC translation in all lines tested, and this effect also correlated with decreases in viability (FIG. 4D).
Human multiple myeloma and Burkitt's Lymphoma cell lines L363, CA46, MM-1R, KMS-11, and MM-1S were cultured and authenticated as previously described (Simmons, et al., Molecular oncology 2014, 8, 261). All plasma derived cell lines were cultured in RPMI-1640 (2 mM L-glutamine, 10% fetal bovine serum (FBS), 100 U/ml penicillin, 100 μg/ml streptomycin: Gibco) and incubated at 37° C. with 5% CO2. Viability experiments were performed in quadruplicate on 96-well plates (Costar) at designated time and dose points. MTS reagent was then directly added, incubated at 37° C. for 90 min, and absorbance of MTS formazan was read at 500 nm on an Omega 640 spectrophotometer. Percentage cell viability was normalized to the absorbance of untreated (DMSO) wells. In the case of cells harvested for their protein or RNA, pellets were flash frozen and stored at −80° C. overnight prior to use. […]

[1] = tested on: c-MYC expression in CA46 cells; assay: c-MYC expression in CA46 Burkitt's Lymphoma line; assay type: cell-based, human; settings: CA46 line lacking G4 control
Text: To confirm a G4 specific mechanism of action in cells, the CA46 Burkitt's Lymphoma line was used in an exon-specific assay, as previously reported (Boddupally, et al., J Med Chem 2012, 55, 6076). For most cell lines, 85-90% of c-Myc expression is controlled by the G4 located prior to exons 1 and 2 in the promoter. Furthermore, expression predominantly occurs following exon 2, due to a thousand-fold increase in transcription from this allele (Brown, et al., J Biol Chem 2011, 286, 41018). The CA46 Burkitt's Lymphoma cell line is an exception to this trend due to the existence of a chromosome (8:14) (Pelicci, et al., Proc Natl Acad Sci USA 1986, 83, 2984) translocation between exons 1 and 2, leaving exon 1 under G4 control. As a result, c-Myc expression from exon 2 is G4 independent (FIG. 3B). This renders the overall cell line resistant to G4-mediated c-Myc inhibition at the RNA and protein level, and proliferation should be uninhibited by G4-stabilizing agents. […]
Cell pellets/tissue were homogenized and lysed in RIPA buffer on ice for 1 h. Protein was quantitated by BCA, and equal protein was loaded onto 4-12% Bis-Tris Gels (Novex), electrophoresed at 150 V for 75 min to obtain sufficient separation, and transferred via the iBlot system (Life Technologies). […]

myeloma cells = assay: Senescence in myeloma cells; assay type: cell-based, human; settings: 10 μM, after 72 hours
[2] = tested on: mutant sequence incapable of G4 formation; assay type: biochemical; settings: concentrations up to 100 μM
[3] = L-363, viability of L363 cells, read-out: IC50

| Structure (SMILES) | Growth Percent (SK-MEL-5) | Growth Percent (NCI-H522) | Growth Percent (MCF7) | Growth Percent (SF-268) | Growth Percent (SR) | Growth Percent (COLO 205) | Growth Percent (HS 578T) | IC50 (L363 cells; L-363, L363, read-out: IC50) | IC50 (L363 cells; [3]) | c-MYC expression / protein translation [1] | IC50 (L363 cells; L-363, 72 h, after 72 hours, read-out: IC50 myeloma cell viability) | senescent state (myeloma cells) | effect on PCR amplification [2] |
| --- | --- | --- | --- | --- | --- | --- | --- | --- | --- | --- | --- | --- | --- |
| Cc1oc2ccc(O)c(CN3CCCCCC3)c2c1C(=O)Nc1ccc(C(F)(F)F)cc1 [Compound 23] | 69.97% | 72.52% | 48.09% | 75.44% | −8.44% | 48.73% | 65.50% | 3.64 µM | 3.6 µM |  |  |  |  |
| Cc1ccc(NC(=O)c2c(C)oc3ccc(O)c(CN4CCCCCC4)c23)cc1 [Compound 1] | 86.08% | 90.68% | 78.41% | 100.73% | 83.12% | 104.20% | 88.40% |  | 7.6 µM | resistant to inhibition of c-Myc protein translation; also recorded: negligible changes | 7.6 ± 1.1 µM | triggered a senescent state | no effect |

Reference: patent US11014902B2, “MYC G-quadruplex stabilizing small molecules and their use” (The United States of America, as represented by the …, priority 2015, dated 2021)
